Reference: patent publication US20250353855A1, “HETEROCYCLIC AND HETEROARYL COMPOUNDS FOR TREATING HUNTINGTON'S DISEASE” (PTC THERAPEUTICS, INC., priority 2022, published 2025)
Where two headings read alike, the source gives them in different places.

Test system: Endogenous Huntingtin Protein
Experiment: Endogenous Huntingtin Protein Assay (ELISA-based MSD electrochemiluminescence)
Format: cell-based
Details: MSD plates coated with MW1 (expanded polyglutamine) or MAB2166 capture antibody, lysates
Outline: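 Electrochemiluminescence sandwich ELISA for endogenous huntingtin: capture with MW1 (expanded polyglutamine) or MAB2166 antibody at 1 μg/mL, samples incubated overnight at 4° C. Detection with rabbit monoclonal #5656S then goat anti-rabbit SULFO-TAG antibody (each 0.25 μg/mL, 1 h room temperature), read on MSD imager.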

SMILES	IC50 (read-out: IC50)	IC50
CO/N=C1/CCc2cc(-c3cc4c(nn3)N([C@H]3CCNC5(CC5)C3)CC4)c(O)cc21 [Cpd 60, (3Z)-6-{7-[(7S)-4-azaspiro[2.5]octan-7-yl]-6,7-dihydro-5H-pyrrolo[2,3-c]pyridazin-3-yl}-3-(methoxyimino)-2,3-dihydro-1H-inden-5-ol]	500 to 1000 nM	
Cn1nnc2cc(O)c(-c3cc4ccn([C@H]5CC(C)(C)NC(C)(C)[C@H]5F)c4nn3)cc21 [Cpd 42, 6-{7-[(3S,4S)-3-fluoro-2,2,6,6-tetramethylpiperidin-4-yl]-7H-pyrrolo[2,3-c]pyridazin-3-yl}-1-methyl-1H-benzotriazol-5-ol]	< 100 nM	
Cc1cc(=O)oc2cc(O)c(-c3cc4c(nn3)N([C@@H]3C[C@H]5CC[C@H](N5)[C@@H]3F)CC4)cc12 (single isomer, unassigned) [Cpd 79, 6-{7-[(1S,2S,3R,5R)-2-fluoro-8-azabicyclo[3.2.1]octan-3-yl]-6,7-dihydro-5H-pyrrolo[2,3-c]pyridazin-3-yl}-7-hydroxy-4-methyl-2H-1-benzopyran-2-one or 6-{7-[(1R,2R,3S,5S)-2-fluoro-8-azabicyclo[3.2.1]octan-3-yl]-6,7-dihydro-5H-pyrrolo[2,3-c]pyridazin-3-yl}-7-hydroxy-4-methyl-2H-1-benzopyran-2-one]	< 100 nM	
Cn1nnc2cc(O)c(-c3cc4c(nn3)N([C@H]3CC(C)(C)NC(C)(C)[C@H]3F)CC4)cc21 [Cpd 92, 6-{7-[(3S,4S)-3-fluoro-2,2,6,6-tetramethylpiperidin-4-yl]-6,7-dihydro-5H-pyrrolo[2,3-c]pyridazin-3-yl}-1-methyl-1H-benzotriazol-5-ol]	< 100 nM	
Cc1nc2cc(O)c(-c3cc4c(nn3)N(C3CC5(CC5)NC5(CC5)C3)CC4)cc2s1 (stereo not drawn) [Cpd 71, 6-[7-(4-azadispiro[2.1.25.33]decan-9-yl)-6,7-dihydro-5H-pyrrolo[2,3-c]pyridazin-3-yl]-2-methyl-1,3-benzothiazol-5-ol]	< 100 nM	
Cc1nc2cc(-c3cc4ccn([C@H]5CC(C)(C)NC(C)(C)[C@H]5F)c4nn3)c(O)cc2s1 [Cpd 8, 5-{7-[(3S,4S)-3-fluoro-2,2,6,6-tetramethylpiperidin-4-yl]-7H-pyrrolo[2,3-c]pyridazin-3-yl}-2-methyl-1,3-benzothiazol-6-ol]	< 100 nM	
Cc1nc2cc(O)c(-c3cc4c(nn3)N([C@H]3CC(C)(C)NC(C)(C)[C@H]3F)CC4)cc2nc1C [Cpd 51, 7-{7-[(3S,4S)-3-fluoro-2,2,6,6-tetramethylpiperidin-4-yl]-6,7-dihydro-5H-pyrrolo[2,3-c]pyridazin-3-yl}-2,3-dimethylquinoxalin-6-ol]	< 100 nM	
Cc1cc(=O)oc2cc(O)c(-c3cc4c(nn3)N([C@H]3CCNC5(CC5)C3)CC4)cc12 [Cpd 66, 6-{7-[(7S)-4-azaspiro[2.5]octan-7-yl]-6,7-dihydro-5H-pyrrolo[2,3-c]pyridazin-3-yl}-7-hydroxy-4-methyl-2H-1-benzopyran-2-one]	< 100 nM	
Cc1cc(=O)c2cc(-c3cc4c(nn3)N([C@H]3CC(C)(C)NC(C)(C)[C@H]3F)CC4)c(O)cc2o1 [Cpd 68, 6-{7-[(3S,4S)-3-fluoro-2,2,6,6-tetramethylpiperidin-4-yl]-6,7-dihydro-5H-pyrrolo[2,3-c]pyridazin-3-yl}-7-hydroxy-2-methyl-4H-1-benzopyran-4-one]	< 100 nM	
Cn1cc2cc(-c3cc4ccn([C@H]5CC(C)(C)NC(C)(C)[C@H]5F)c4nn3)c(O)c(F)c2n1 [Cpd 100, 7-fluoro-5-{7-[(3S,4S)-3-fluoro-2,2,6,6-tetramethylpiperidin-4-yl]-7H-pyrrolo[2,3-c]pyridazin-3-yl}-2-methyl-2H-indazol-6-ol]	< 100 nM	
CC1(C)C[C@H](N2CCc3cc(-c4cc5ncccc5cc4O)nnc32)[C@H](F)C(C)(C)N1 [Cpd 80, 7-{7-[(3S,4S)-3-fluoro-2,2,6,6-tetramethylpiperidin-4-yl]-6,7-dihydro-5H-pyrrolo[2,3-c]pyridazin-3-yl}quinolin-6-ol]		< 100 nM
Cc1cc(=O)c2cc(O)c(-c3cc4c(nn3)N([C@H]3CC(C)(C)NC(C)(C)[C@H]3F)CC4)cc2o1 [Cpd 83, 7-{7-[(3S,4S)-3-fluoro-2,2,6,6-tetramethylpiperidin-4-yl]-6,7-dihydro-5H-pyrrolo[2,3-c]pyridazin-3-yl}-6-hydroxy-2-methyl-4H-1-benzopyran-4-one]	< 100 nM	
Cn1ccc(=O)c2cc(-c3cc4ccn([C@H]5CC(C)(C)NC(C)(C)[C@H]5F)c4nn3)c(O)cc21 [Cpd 18, 6-{7-[(3S,4S)-3-fluoro-2,2,6,6-tetramethylpiperidin-4-yl]-7H-pyrrolo[2,3-c]pyridazin-3-yl}-7-hydroxy-1-methylquinolin-4(1H)-one]	< 100 nM	
Cn1c(=O)cnc2cc(-c3cc4ccn([C@H]5CC(C)(C)NC(C)(C)[C@H]5F)c4nn3)c(O)cc21 [Cpd 26, 6-{7-[(3S,4S)-3-fluoro-2,2,6,6-tetramethylpiperidin-4-yl]-7H-pyrrolo[2,3-c]pyridazin-3-yl}-7-hydroxy-1-methylquinoxalin-2(1H)-one]	< 100 nM	
Cc1nc2cc(-c3cc4c(nn3)N(C3CCNC5(CCC5)[C@@H]3F)CC4)c(O)cc2s1 (single isomer, unassigned) [Cpd 74, 5-{7-[(8R,9R)-9-fluoro-5-azaspiro[3.5]nonan-8-yl]-6,7-dihydro-5H-pyrrolo[2,3-c]pyridazin-3-yl}-2-methyl-1,3-benzothiazol-6-ol or 5-{7-[(8S,9S)-9-fluoro-5-azaspiro[3.5]nonan-8-yl]-6,7-dihydro-5H-pyrrolo[2,3-c]pyridazin-3-yl}-2-methyl-1,3-benzothiazol-6-ol]	< 100 nM	
Cc1nc2cc(O)c(-c3cc4c(nn3)N(C3CC5(CC5)NC5(CC5)C3)CC4)cc2o1 (stereo not drawn) [Cpd 72, 6-[7-(4-azadispiro[2.1.25.33]decan-9-yl)-6,7-dihydro-5H-pyrrolo[2,3-c]pyridazin-3-yl]-2-methyl-1,3-benzoxazol-5-ol]	< 100 nM	
Cc1nc2cc(O)c(-c3cc4nnn(C5CC(C)(C)NC6(CC6)C5)c4nn3)cc2s1 (stereo not drawn) [Cpd 12, 6-[3-(5,5-dimethyl-4-azaspiro[2.5]octan-7-yl)-3H-[1,2,3]triazolo[4,5-c]pyridazin-6-yl]-2-methyl-1,3-benzothiazol-5-ol]	< 100 nM	
CC1(C)C[C@H](N2CCc3cc(-c4cc5occc(=O)c5cc4O)nnc32)[C@H](F)C(C)(C)N1 [Cpd 82, 7-{7-[(3S,4S)-3-fluoro-2,2,6,6-tetramethylpiperidin-4-yl]-6,7-dihydro-5H-pyrrolo[2,3-c]pyridazin-3-yl}-6-hydroxy-4H-1-benzopyran-4-one]	< 100 nM	
CC1(C)C[C@H](N2CCc3cc(-c4cc5c(=O)ccoc5cc4O)nnc32)[C@H](F)C(C)(C)N1 [Cpd 69, 6-{7-[(3S,4S)-3-fluoro-2,2,6,6-tetramethylpiperidin-4-yl]-6,7-dihydro-5H-pyrrolo[2,3-c]pyridazin-3-yl}-7-hydroxy-4H-1-benzopyran-4-one]	< 100 nM	
CC1(C)C[C@H](N2CCc3cc(-c4cc5nsnc5cc4O)nnc32)[C@H](F)C(C)(C)N1 [Cpd 85, 6-{7-[(3S,4S)-3-fluoro-2,2,6,6-tetramethylpiperidin-4-yl]-6,7-dihydro-5H-pyrrolo[2,3-c]pyridazin-3-yl}-2,1,3-benzothiadiazol-5-ol]	< 100 nM	
CC1(C)CC(n2nnc3cc(-c4cc5cccnc5cc4O)nnc32)CC(C)(C)N1 [Cpd 2, 6-[3-(2,2,6,6-tetramethylpiperidin-4-yl)-3H-[1,2,3]triazolo[4,5-c]pyridazin-6-yl]quinolin-7-ol]	1000 to 3000 nM	
